Results on five compounds are retold here after BindingDB's records for doi:10.1016/j.chembiol.2009.01.014 (Duke University Medical Center, 2009).

pIC50: −log10 of the molar value.

Experiment [1] has as its target Protein farnesyltransferase subunit beta/geranylgeranyltransferase type-1 subunit alpha (Homo sapiens, UniProt P49354+P49356). In words: In Vitro PFT Activity Assay. Particulars: pH 7.7; 30 °C. The method, then: In vitro inhibition assay of human PFT was done by measuring the incorporation of [3H] FPP (Amersham Biosciences, Piscataway, NJ) into wild type H-Ras (PFT). The 60,000g post-microsomal supernatant from Daudi cells was incubated in the presence of increasing concentration of compound, H-Ras substrate, and [3H] FPP. Samples were TCA-precipitated and then filtered onto glass fiber filters; unbound [3H] FPP was washed through the filters. Samples were counted on a scintillation counter and activity compared to vehicle controls to obtain IC50 values.

The target of experiment [2] is Protein farnesyltransferase/geranylgeranyltransferase type-1 subunit alpha / Protein farnesyltransferase subunit beta (Plasmodium falciparum, UniProt Q5EI73+Q5EI74). Description: PfPFT IC50 Determination. Particulars: pH 7.5; 37 °C. The method, then:
Assays for PfPFT activity were performed with a PFT-specific scintillation assay (SPA) kit (Amersham Biosciences, Piscataway, NJ). An amount of 1 uM biotinylated lamin B peptide was used. The concentration of [3H]farnesyl pyrophosphate (FPP) was increased beyond manufacturer recommendations to 1 uM. IC50 values were calculated using linear regression analysis of the plots of [3H]FPP prenylation versus concentration of compounds.

Chain of Protein farnesyltransferase/geranylgeranyltransferase type-1 subunit alpha / Protein farnesyltransferase subunit beta (Q5EI73 1-521): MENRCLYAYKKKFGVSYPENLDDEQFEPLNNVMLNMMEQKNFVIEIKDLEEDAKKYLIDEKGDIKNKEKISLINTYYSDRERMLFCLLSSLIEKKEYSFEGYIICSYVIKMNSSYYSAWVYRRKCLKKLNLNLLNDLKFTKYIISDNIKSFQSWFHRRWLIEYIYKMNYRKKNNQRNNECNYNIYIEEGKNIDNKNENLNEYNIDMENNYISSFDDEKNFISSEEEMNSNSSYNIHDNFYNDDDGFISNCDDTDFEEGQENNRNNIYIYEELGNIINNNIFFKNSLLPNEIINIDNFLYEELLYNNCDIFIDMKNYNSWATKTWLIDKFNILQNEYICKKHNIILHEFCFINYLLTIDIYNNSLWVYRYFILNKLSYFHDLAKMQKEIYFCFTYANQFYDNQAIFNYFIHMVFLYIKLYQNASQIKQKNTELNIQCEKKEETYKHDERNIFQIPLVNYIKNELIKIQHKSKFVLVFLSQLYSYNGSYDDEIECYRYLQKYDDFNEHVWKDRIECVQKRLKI
Chain of Protein farnesyltransferase/geranylgeranyltransferase type-1 subunit alpha / Protein farnesyltransferase subunit beta (Q5EI74 1-923): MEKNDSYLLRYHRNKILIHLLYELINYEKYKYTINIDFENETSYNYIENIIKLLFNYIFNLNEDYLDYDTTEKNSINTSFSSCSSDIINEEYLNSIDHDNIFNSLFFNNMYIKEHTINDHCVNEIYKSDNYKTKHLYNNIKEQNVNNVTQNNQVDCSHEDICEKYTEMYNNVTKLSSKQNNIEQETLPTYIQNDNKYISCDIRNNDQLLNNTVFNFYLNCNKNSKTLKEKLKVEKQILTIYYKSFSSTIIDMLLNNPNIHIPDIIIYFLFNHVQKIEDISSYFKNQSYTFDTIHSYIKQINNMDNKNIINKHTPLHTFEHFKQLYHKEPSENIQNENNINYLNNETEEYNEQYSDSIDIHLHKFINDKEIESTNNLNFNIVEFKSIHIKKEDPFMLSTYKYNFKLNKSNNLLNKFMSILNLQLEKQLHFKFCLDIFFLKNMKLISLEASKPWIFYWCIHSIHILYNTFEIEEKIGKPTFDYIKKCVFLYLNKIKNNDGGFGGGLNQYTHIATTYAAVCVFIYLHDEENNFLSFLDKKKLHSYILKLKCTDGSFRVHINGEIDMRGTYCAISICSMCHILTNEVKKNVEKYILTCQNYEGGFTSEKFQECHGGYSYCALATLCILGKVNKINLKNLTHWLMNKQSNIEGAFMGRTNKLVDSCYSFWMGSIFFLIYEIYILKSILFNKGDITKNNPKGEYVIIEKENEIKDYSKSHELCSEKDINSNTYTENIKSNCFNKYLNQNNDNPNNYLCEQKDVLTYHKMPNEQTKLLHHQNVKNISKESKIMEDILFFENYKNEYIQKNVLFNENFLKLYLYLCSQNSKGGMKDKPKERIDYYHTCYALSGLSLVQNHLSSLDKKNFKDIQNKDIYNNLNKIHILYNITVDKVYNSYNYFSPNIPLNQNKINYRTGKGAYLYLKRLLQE

In turn, `Cn1cnc(S(=O)(=O)N(CCN(Cc2cncn2C)c2ccc(C#N)cc2)Cc2ccccc2)c1` [1-Methyl-1H-imidazole-4-sulfonic Acid Benzyl-{2-[(4-cyanophenyl)-(3-methyl-3H-imidazol-4-ylmethyl)amino]ethyl}amide] showed a pIC50 in experiment [1] of 7.25.

In the case of `Cn1cnc(S(=O)(=O)N(CCN(Cc2cncn2C)c2ccc(C#N)cc2)CC2CCN(C(=O)OC(C)(C)C)CC2)c1` [ethylenediamine scaffold, 4], the pIC50 in experiment [2] was 8.92; in experiment [1], 5.43.

With `Cc1ccccc1S(=O)(=O)N(CCN(Cc1cncn1C)c1ccc(C#N)cc1)CC1CCN(C(=O)OC(C)(C)C)CC1` [ethylenediamine scaffold, 5], in experiment [2], the pIC50 is 8.52.

As to `Cc1ccccc1S(=O)(=O)N(CCN(Cc1cncn1C)c1ccc(C#N)cc1)Cc1ccccc1` [ethylenediamine scaffold, 7], the values for the pIC50 in experiment [2] and in experiment [1] were 8.30 and 6.80, respectively.

As to `Cn1cncc1CN(CCN(CC1CCN(C(=O)OC(C)(C)C)CC1)S(=O)(=O)c1ccccc1-c1cccc(CCC(=O)O)c1)c1ccc(C#N)cc1` [ethylenediamine scaffold, 10], the pIC50 in experiment [2] was 7.15; in experiment [1] it was 6.10.
